# Active and inactive are the calls of the source. No rule for the calls is given here.
# Tested on: not listed separately
# Test: M. tuberculosis H37Rv growth inhibition, dose response, strain H37Rv (AID 489010)
# Conditions: M. tuberculosis H37Rv growth inhibition; at 100 µM (top of the series)
row,SMILES,growth inhibition
1,CCCc1[nH]nc2c1C(c1ccoc1)C(C#N)=C(N)O2 (stereo unspecified),1.3% (inactive)
2,COC(=O)C(C#N)C(c1cccnc1)c1c(C)[nH][nH]c1=O (stereo unspecified),-0.4% (inactive)
3,O=c1cc(-c2ccc(Cl)c(Cl)c2)[nH][nH]1,1.79% (inactive)
4,Cc1ccc(-c2cc(=O)[nH][nH]2)c(C)c1,1.66% (inactive)
5,O=C(CSCc1cc(=O)[nH][nH]1)Nc1ccc(F)cc1,0.76% (inactive)
6,CSCCC1C(C#N)=C(N)Oc2n[nH]c(-c3cccs3)c21 (stereo unspecified),11.2% (inactive)
7,O=C1CC(CSc2ccc(Cl)cc2)=NN1,-0.64% (inactive)
8,O=C(Cc1cc(=O)[nH][nH]1)N/N=C/c1c(F)cccc1Cl,1.68% (inactive)

# Tested on: M. tuberculosis H37Rv growth inhibition
# Test: as above
# Conditions: not given
row,SMILES,IC90
1,C(=N\Nc1nncc2ccccc12)/c1ccccn1,19.8 µM
2,CC(=O)N(Cc1ccc(F)cc1)C1=C(NCCc2ccccc2)C(=O)c2ccccc2C1=O,1.31 µM
3,Cc1c(/C=N/Nc2nc3ccccc3[nH]2)c2ccccc2n1C,16.2 µM

# Same assay, conditions: measured here: H37Rv growth IC50
row,SMILES,IC50
1,CSc1nnc(NC(=O)c2nc(S(=O)(=O)Cc3ccccc3F)ncc2Cl)s1,41.3 µM
2,Cc1ccc(Sc2ccc(NC(=O)CCl)cc2)c(C)c1,17.7 µM
3,C/C(=N\NC(=O)c1ccncc1)c1cc2ccccc2oc1=O,0.29 µM
4,COC(=O)c1c(C)oc2ccc(N(C(=O)c3ccncc3)S(=O)(=O)c3ccc4ccccc4c3)cc12,66.9 µM
5,Cc1nn(-c2ccccc2)c(Cl)c1CN(C(=O)CCl)c1ccc(Cl)cc1,1.53 µM
6,COc1ccc(N(C(=O)CCl)C(C(=O)NCCc2ccccc2)c2cccs2)cc1 (stereo unspecified),7.8 µM
7,CC(NC(=O)COC(=O)c1cc(NS(=O)(=O)c2ccc(Cl)c([N+](=O)[O-])c2)ccc1O)C1CC2CCC1C2 (stereo unspecified),52.1 µM
8,O=C(CCl)Nc1cn(-c2ccccc2)nc1-c1ccc(F)cc1,< 0.2 µM
9,Cc1ccc(C)c(Sc2ccc(NC(=O)CCl)cc2)c1,22.5 µM
10,Cc1oc2c(c1C(=O)NCc1cccnc1)C(=O)c1ccccc1C2=O,< 0.2 µM
11,Cc1ccccc1-n1ncc2c([N+](=O)[O-])cc([N+](=O)[O-])cc21,1.01 µM
12,O=C(CCl)N1c2ccccc2OCC1c1ccccc1 (stereo unspecified),1.69 µM
13,CC(=O)n1cc(N(C(=O)CCl)c2ccc(C)cc2)c2ccccc21,1.95 µM
14,CSc1nnc(NC(=O)c2nc(S(=O)(=O)Cc3cccc(C)c3)ncc2Cl)s1,23.8 µM
15,Cc1ccc(C(=O)Oc2ccc([N+](=O)[O-])cc2)cc1S(=O)(=O)N1CCCCCC1,46.6 µM
16,COc1cc2c(cc1OC)C(c1cc(Br)ccc1F)N(C(=O)CCl)CC2 (stereo unspecified),5.91 µM
17,CC(=O)n1cc(N(C(=O)CCl)c2ccc([N+](=O)[O-])cc2)c2ccccc21,3.24 µM
18,COC(=O)c1sc(-c2ccc(C(C)(C)C)cc2)cc1NC(=O)/C=C/C(=O)O,19.1 µM
19,Cc1[nH]n(-c2ccccc2)c(=O)c1C(c1cccc([N+](=O)[O-])c1)c1c(C)[nH]n(-c2ccccc2)c1=O,> 100 µM
20,CN(C1=C(NC(=O)c2ccc(Cl)cc2)C(=O)c2ccccc2C1=O)c1ccccc1,9.43 µM
21,O=C(Cc1ccccc1)c1c[nH]c(C(=O)C(Cl)(Cl)Cl)c1,93.8 µM
22,Clc1ccc(-n2nnnc2Sc2ncnc3sccc23)cc1,5.98 µM
23,CC1=NNC(=O)C1Cc1c(Cl)cccc1Cl (stereo unspecified),46.2 µM
24,Cn1nc(-c2ccccn2)nc2c(=O)n(C)c(=O)nc1-2,10.1 µM

row,SMILES,IC50
1,Cc1cc(C)cc(Cn2ncc(Cl)c(Cl)c2=O)c1,11.7 µM
2,Cc1sc2ncnc(Sc3nnnn3-c3ccccc3)c2c1C,40.5 µM
3,Cc1ccc(CS(=O)(=O)c2ncc(Cl)c(C(=O)Nc3nnc(C(C)C)s3)n2)cc1,53.5 µM
4,COc1cc2c(cc1OC)-c1c(OC)c(OC)cc3c1C(C2)N(C)CC3 (stereo unspecified),25.8 µM
5,COC(=O)c1sc(-c2ccc(Cl)cc2)cc1NC(=O)/C=C/C(=O)O,41.8 µM
6,Cc1ccc2c(c1)c1c3n2CCN(C(=O)CCl)C3CCC1 (stereo unspecified),1.39 µM
7,Cc1cc(C)c(S(=O)(=O)/N=C2\C=C(Nc3ccc(C(=O)O)cc3)C(=O)c3ccccc32)c(C)c1,> 100 µM
8,O=C(OCn1ncc(Cl)c(Cl)c1=O)c1cccc(C(F)(F)F)c1,44.9 µM
9,Cn1nc(-c2ccc(Cl)cc2)nc2c(=O)n(C)c(=O)nc1-2,6.35 µM
10,Cc1cccc(Cn2nnc3c2C(=O)c2ccccc2C3=O)c1,13.7 µM
11,Cc1nn(-c2ccccc2)c(Cl)c1CN(C(=O)CCl)c1cccc2ccccc12,21.7 µM
12,COc1cc(NCCCCCCCN)c2ncccc2c1,36.3 µM
13,COc1ccc2nc(C)cc(Sc3nc4ccccc4s3)c2c1,42.3 µM
14,O=C(CCl)N(c1ccc(Cl)cc1)c1c[nH]c2ccccc12,1.91 µM
15,Cc1ccc(-n2nnc3c(SCC(=O)NCC4CCCO4)ncnc32)cc1 (stereo unspecified),46.4 µM
16,C=CCOc1ccccc1CN(C(=O)CCl)c1ccc2c(c1)OCO2,1.64 µM
17,O=C(N/N=C/c1c(O)n(C2CCCCC2)c(=S)[nH]c1=O)c1ccccc1O,> 100 µM
18,COc1cccc(N(C(=O)CCl)C(C(=O)NCCc2ccccc2)c2cccs2)c1 (stereo unspecified),19.1 µM
19,CC(CCc1ccccc1)NC(=O)COC(=O)c1cc(NS(=O)(=O)c2ccc(Cl)c([N+](=O)[O-])c2)ccc1O (stereo unspecified),> 100 µM
20,CC(C)c1nnc(NC(=O)c2nc(S(=O)(=O)Cc3ccc(F)cc3)ncc2Cl)s1,53.8 µM
21,Cn1c(O)c(C2=NN(C(=O)CCl)C(c3ccccc3)C2)c(=O)n(C)c1=O (stereo unspecified),82.7 µM
22,CCC(C)[C@@H](NC(=O)OC(C)(C)C)c1nnc(S(=O)(=O)Cc2cccc(C)c2)o1 (stereo partly specified),31.9 µM
23,CC(C)(C)C1CCc2sc(C(=O)NNC(=O)CCl)cc2C1 (stereo unspecified),6.29 µM
24,Cc1ccc(N(NC(=O)C(O)(c2ccccc2)c2ccccc2)C(=O)CCl)cc1,12 µM

row,SMILES,IC50
1,C(=N\Nc1nncc2ccccc12)/c1ccccn1,15.9 µM
2,CCCCCCCCCCn1c2c(c(=N)c3c1CCC3)CCC2,2.16 µM
3,COc1ccc(C(=O)c2c(C(F)(F)F)oc3c2C(=O)c2ccccc2C3=O)cc1OC,9.48 µM
4,CC(=O)N(Cc1ccc(F)cc1)C1=C(NCCc2ccccc2)C(=O)c2ccccc2C1=O,0.74 µM
5,O=C(NC1=C(NC2CCS(=O)(=O)C2)C(=O)c2ccccc2C1=O)c1ccccc1 (stereo unspecified),50.7 µM
6,Cc1cc(Br)c2c(c1)/C(=C/C(=O)c1cccs1)C(=O)N2,11.7 µM
7,O=C(NC(NC(=S)Nc1ccc(Cl)cc1Cl)C(Cl)(Cl)Cl)c1cccc([N+](=O)[O-])c1 (stereo unspecified),9.33 µM
8,O=C(NC1CCCCC1)C(c1cccnc1)N(C(=O)CCl)c1cccc(Cl)c1 (stereo unspecified),15.5 µM
9,CC(C)(C)c1csc(Sc2ccc([N+](=O)[O-])cn2)n1,51 µM
10,Cc1nc2c(=O)n(C)c(=O)nc-2n(C)n1,1.9 µM
11,Cc1c(/C=N/Nc2nc3ccccc3[nH]2)c2ccccc2n1C,9.5 µM
12,CN(C1=C(NC(=O)c2ccccc2)C(=O)c2ccccc2C1=O)C1CCS(=O)(=O)C1 (stereo unspecified),88.6 µM
13,CCN(CC)CCNC(=O)c1ccc2c(c1NCCO)C(=O)c1ccccc1C2=O,> 100 µM
14,Cc1oc2c(c1C(=O)N1CCOCC1)C(=O)c1ccccc1C2=O,18 µM
15,O=C(OCn1ncc(Cl)c(Cl)c1=O)c1ccccc1Cl,22.1 µM
16,Cc1ccc(N(C(=O)CCl)C(C(=O)NC2CCCCC2)c2cccnc2)cc1C (stereo unspecified),20.5 µM
17,Cc1[nH]n(-c2ccccc2)c(=O)c1C(C[N+](=O)[O-])c1ccc(F)cc1 (stereo unspecified),19.6 µM
18,Fc1ccc(Oc2nc(-c3ccccc3)nnc2C(F)(F)F)cc1,> 100 µM
19,Cc1ccc(Sc2ccc(NC(=O)CCl)cc2)cc1C,14.4 µM
20,CCn1nc(/C=C/c2ccccc2)nc2c(=O)n(C)c(=O)nc1-2,6.39 µM
21,CC(=O)n1cc(N(C(=O)CCl)c2ccccc2)c2ccccc21,2.14 µM
22,Cc1ccc(C(=O)OCn2ncc(Cl)c(Cl)c2=O)cc1,42.3 µM
